Results: patent US20220265655A1, “METHODS OF TREATING INFLAMMATORY DISEASES” (Ribon Therapeutics, Inc., priority 2021, published 2022)

Assays:
[1] = tested on: Alternaria sensitized mice challenged with Alternaria; conditions: Compound 2 500 mg/kg b.i.d., Compound 1 500 mg/kg with 1-ABT 25 mg/kg b.i.d.
[2] = tested on: IMQ-induced psoriasis model; test: Imiquimod (IMQ)-induced psoriasis model (Example E)
[3] = tested on: DNCB-induced atopic dermatitis model; test: DNCB-induced atopic dermatitis model (Example D)
[4] = tested on: BLM-induced pulmonary fibrosis model
Procedure: BLM-induced pulmonary fibrosis is an established disease model for IPF. In the model, alveolar injury and interstitial inflammation/fibrosis are induced by intracheal BLM administration.
Formulations (50 μL/vial) were kept for dose verification on the first and last dosing day (2 vials each, total 4 vials).
At Day 0, 40 mice were induced to develop pulmonary fibrosis by a single intratracheal administration of bleomycin hydrochloride (BLM, Nippon Kayaku, Japan) in PBS at a dose of 3.0 mg/kg, in a volume of 50 μL per animal using Microsprayer® (Penn-Century, USA) under a mixture of medetomidine (0.75 mg/kg), midazolam (4 mg/kg) and butorphanol (5 mg/kg) anesthesia by intraperitoneal administration in a volume of 10 mL/kg. […] Five mice were intratracheally administered PBS, instead of the BLM, which served as the Sham group.
Tofacitinib was administered orally at a dose of 50 mg/kg in a volume of 10 mL/kg twice daily (total of 100 mg/kg/day).
The viability, clinical signs and behavior were monitored daily. Body weight was recorded daily from Day 0. Dosing volume was adjusted based on the latest body weight. […] The animals were sacrificed on Day 14 by exsanguination through the abdominal vena cava under a mixture of medetomidine, midazolam and butorphanol anesthesia. The time of the dosing and termination was recorded. The left and post-caval lobe weight for all mice were recorded.
For Group 2-4, BALF samples were collected by flushing the lung via the trachea with sterile PBS three times (1st BALF, 2nd BALF and 3rd BALF, 0.8 mL each) at sacrifice under a mixture of medetomidine, midazolam and butorphanol anesthesia. The 1st BALF was centrifuged at 3,000×g for 5 min at 4° C. and the supernatant was collected and stored at −80° C. The cell pellet from the first fraction (1st BALF) was resuspended and added to the remaining fractions of lavage fluid (2nd and 3rd BALF). The total BALF was centrifuged at 1,000×g for 5 min at 4° C. and the supernatant was removed. Ammonium-Chloride-Potassium (ACK) lysing buffer was added to the pellet and washed for lysis of erythrocytes. After addition of cold PBS, the fluid was centrifuged at 1,000×g for 3 min at 4° C. and the supernatant was removed. Resuspended in PBS and total cell number of BALF was counted using a hemocytometer (C-Chip disposable hemocytometer, Digital Bio). After counting the total cells, the cell suspension was re-suspended in PBS to 5×10^5 cells/mL. A smear sample was then prepared by spotting 100 μL of cell suspension onto slides, and air-dried using a dryer on cool setting.
Indwelling needle was inserted into trachea and connected to instillation route of syringe. The syringe was loaded with 10% neutral buffered formalin and kept at the height of 20 cm. […] The three unfixed lobes were washed with cold saline and measured wet weight.
To quantify lung hydroxyproline content, frozen left lung samples were processed by an acid hydrolysis method as follows. […] AC buffer (2.2M acetic acid/0.48M citric acid, 200 μL) was added to the samples, followed by centrifugation to collect the supernatant. […] The samples were then mixed with Ehrlich's solution (300 μL) and heated at 65° C. for 20 minutes to develop the color. After samples were cooled on ice and centrifuged to remove precipitates, the optical density of each supernatant was measured at 560 nm. The concentrations of hydroxyproline were calculated from the hydroxyproline standard curve. Lung hydroxyproline levels were expressed as […] per left lung.
For Group 2-4, BALF IL-4, IL-6, IL-10 and IL-17 levels were quantified by Quantikine enzyme linked immunosorbent assay kits (code. M4000B for IL-4, code. M6000B for IL-6, code. M1000B for IL-10, code. M1700 for IL-17, R&D systems) according to manufacturer instructions.
For Masson's Trichrome staining, the sections were deparaffinized and rehydrated, followed by re-fixation with Bouin's solution for 15 min.

[5] = tested on: OXZ-induced colitis mouse model; conditions: Compound 1 1,000 mg/kg PO BID; tofacitinib 10 mg/kg PO BID
[6] = ratio (percentage) of BALF cells, mean ± SD

With `O=c1[nH]c(CS[C@H]2CC[C@H](O)CC2)nc2cc(OCC3CC3)cc(F)c12` [Compound 2, 7-(Cyclopropylmethoxy)-5-fluoro-2-(((trans-4-hydroxycyclohexyl)thio)methyl)quinazolin-4(3H)-one] the “IgE blood serum levels” value [1] was “reduced”, the “levels of IL4, IL-5, IL-13, and IL-33 in BAL fluid” value [1] was “reduced” and the “levels of IL4, IL-5, IL-13, and IL-33 in lung tissue” value [1] was “reduced”. The “levels of eosinophils in BAL fluid” value [1] was “reduced”, the “levels of neutrophils in BAL fluid” value [1] was “reduced” and the “airway mucus in lung tissue” value ([1]; days 19-25) was “reduced”.
`C[C@@H]1C[C@H]2[C@@H]3CCC4=CC(=O)C=C[C@]4(C)[C@@]3(F)[C@@H](O)C[C@]2(C)[C@@]1(O)C(=O)CO` [DEX, Dexamethasone] was tested, and the “inhibition rate of clinical scoring (AUC of total clinical score)” value ([2]; Compound 1 500 mg/kg PO BID (P<0.001), DEX ointment 70 mg topical QD (P<0.0001)) was 87.7%, the bodyweight ([2]; monitored daily, consecutive IMQ treatment and dosing) was “caused decreases in bodyweight” and the “inhibition rate of clinical scoring (AUC of total clinical score) compared to vehicle” value ([3]; Compound 1 500 mg/kg PO BID, DEX ointment 70 mg topical QD, P<0.0001) was 43.5%. For the same compound, the “total clinical score, peak / high values” ([3]; Compound 1: peak on Day 17, DEX: high clinical scores, vehicle peak 11.9 on Day 17) was 6-7 and the bodyweight ([3]; monitored daily, Compound 1 500 mg/kg PO BID, DEX ointment topical QD) was “caused decreases in bodyweight”.
For `C[C@@H]1CCN(C(=O)CC#N)C[C@@H]1N(C)c1ncnc2[nH]ccc12` [Tofacitinib free base, Tofacitinib], the “mean body weight changes (% of Day 0) compared with Vehicle group” value ([4]; Compound 1 500 mg/kg PO BID, Tofacitinib free base 50 mg/kg PO BID, Day 1-14) was “significantly higher than that of the Vehicle group from Day 6 to Day 14”, the “Left lung weight” value ([4]; Day 14, mean ± SD) was 101 ± 9 mg and the Post-caval lobe weight ([4]; Day 14, mean ± SD) was 27 ± 4. For the same compound, the “Right inferior lobe weight” value ([4]; Day 14, mean ± SD) was 84 ± 14, the Ashcroft score ([4]; Masson's trichrome-stained lung sections, mean ± SD) was 2.2 ± 1.2 and the “mice found dead during the treatment period” value ([4]; before reaching Day 14) was “no dead animals”. For the same compound, the “bodyweight” value ([4]; day of sacrifice (Day 14), mean ± SD) was 18.1 ± 1.7 g, the “BALF IL-6” value ([4]; mean ± SD) was 4.4 ± 5.5 pg/mL and the “Lung hydroxyproline (μg/left lung)” value ([4]; mean ± SD) was 49.3 ± 8.3 μg/left lung. The “Total cells (×10^4) in BALF” value ([4]; mean ± SD) was 83.8 ± 50.0 ×10^4, the “BALF IL-10” value ([4]; mean ± SD, Compound 1 (n = 6), Tofacitinib free base (n = 1)) was 2.9 pg/mL and the “mean body weight on the day of sacrifice compared with the Vehicle group” value ([4]; mouse, in vivo) was “increasing trend”. The “mean right inferior lobe weight compared with the Vehicle group” value ([4]; mouse, in vivo) was “significant decreases”, the “total number of cells in BALF compared with the Vehicle group” value ([4]; mouse, in vivo) was “no significant difference” and the “Eosinophil in BALF” value ([4]; ratio (percentage) of BALF cells) was 0.0. For the same compound, the “Lymphocyte in BALF” value [4, 6] was 11.7 ± 14.5, the “Monocyte in BALF” value [4, 6] was 88.0 ± 15.2 and the “Neutrophil in BALF” value [4, 6] was 0.3 ± 0.9. For the same compound, the “AUC of body weight change, difference to vehicle group” value [5] was “a statistical difference was not seen”, the “AUC of the DAI score in comparison to vehicle” value [5] was “suppressed” and the “DAI score in comparison to vehicle treated mice” value [5] was “suppressed”. The “body weight loss compared with vehicle group” value [5] was “suppressed”, the “colon density (increase induced by OXZ)” value [5] was “also suppressed” and the “colon histology (H&E staining) compared to the vehicle group” value [5] was “appeared similar to the sham group”. The “colon length (reduction induced by OXZ)” value [5] was “also suppressed”, the “colon weight (increase induced by OXZ)” value [5] was “also suppressed” and the “pathological score of colitis severity in comparison to the vehicle control group” value [5] was “increased integrity of the crypt structure, less inflammatory cell infiltration, reduced muscle thickening and less crypt abscess”.
